The results in this text go back to US8378107B2, “Heteroaryl antagonists of prostaglandin D2 receptors” (Panmira Pharmaceuticals, LLC, priority 2008, dated 2013).

The experiment addresses T1, human DP2 receptor (Homo sapiens, UniProt Q9Y5Y4).
T1 construct: expressed in transfected cells; membrane preparation
T1 sequence (Q9Y5Y4 1-395): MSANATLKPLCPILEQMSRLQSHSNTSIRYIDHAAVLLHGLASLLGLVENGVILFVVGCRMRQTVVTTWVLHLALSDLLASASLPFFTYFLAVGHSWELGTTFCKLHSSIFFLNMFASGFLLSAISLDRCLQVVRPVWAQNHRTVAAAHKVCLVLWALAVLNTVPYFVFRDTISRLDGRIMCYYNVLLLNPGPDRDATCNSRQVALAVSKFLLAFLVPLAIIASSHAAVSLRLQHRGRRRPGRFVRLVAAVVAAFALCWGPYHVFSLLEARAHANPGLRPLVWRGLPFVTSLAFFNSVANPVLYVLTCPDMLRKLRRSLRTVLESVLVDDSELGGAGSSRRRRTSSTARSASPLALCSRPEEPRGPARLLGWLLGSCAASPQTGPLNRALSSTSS
Briefly: DP2/CRTH2 radioligand binding assay using [3H]PGD2. Conditions: membranes of HEK293 cells expressing recombinant human DP2, 1 nM [3H]PGD2; read-out: hDP2. As for the experimental part: The ability of a compound to bind to the human DP2 receptor is assessed via a radioligand binding assay using [^3H]PGD2. HEK293 cells stably expressing recombinant human DP2 are resuspended in 10 mM Hepes, 7.4 containing 1 mM DTT, lysed and centrifuged at 75,000×g to pellet the membranes. The membranes are resuspended in 10 mM Hepes, 7.4 containing 1 mM DTT and 10% glycerol to approximately 5 mg protein/ml. Membranes (2-10 μg protein/well) are incubated in 96-well plates with 1 nM [^3H]PGD2 and test compound in Assay Buffer (50 mM Hepes, 10 mM MnCl2, 1 mM EDTA, plus or minus 0.2% human serum albumin, pH 7.4) for 60 minutes at room temperature. The reactions are terminated by rapid filtration through Whatman GF/C glass fibre filter plates. The filter plates were pre-soaked in 0.33% polyethylenimine for 30 minutes at room temperature then washed in Wash Buffer (50 mM Hepes, 0.5 M NaCl pH 7.4) prior to harvesting. After harvesting, the filter plates are washed 3 times with 1 ml cold Wash Buffer then dried. Scintillant is then added to the plates and the radioactivity retained on the filters is determined on a Packard TopCount (Perkin Elmer). Specific binding is determined as total radioactive binding minus non-specific binding in the presence of 10 μM PGD2. IC50s were determined using GraphPad prism analysis of drug titration curves.
Regarding `COc1ccc(CC(=O)O)cc1-c1ncccc1CNC(=O)OCc1ccccc1` [Compound 1-1, {3-[3-(Benzyloxycarbonylamino-methyl)-pyridin-2-yl]-4-methoxy-phenyl}-acetic acid], the IC50 is over 1000 nM.

Take `CCN(Cc1cc(C)cnc1-c1cc(CC(=O)O)ccc1OC)C(=O)C1CC1` [Compound 1-2, (3-{3-[(Cyclopropanecarbonyl-ethyl-amino)-methyl]-5-methyl-pyridin-2-yl}-4-methoxy-phenyl)-acetic acid]: the IC50 is 300 to 1000 nM.

In the case of `CCN(Cc1cc(C)cnc1-c1cc(CC(=O)O)ccc1OC)C(=O)CCc1ccccc1` [Compound 1-3, [3-(3-{[Ethyl-(3-phenyl-propionyl)-amino]-methyl}-5-methyl-pyridin-2-yl)-4-methoxy-phenyl]-acetic acid], the IC50 is under 300 nM.

As to `CCN(Cc1cc(C)cnc1-c1cc(CC(=O)O)ccc1OC)C(=O)NCc1ccccc1` [Compound 1-4, {3-[3-(3-Benzyl-1-ethyl-ureidomethyl)-5-methyl-pyridin-2-yl]-4-methoxy-phenyl}-acetic acid], the IC50 is under 300 nM.

Take `CCN(Cc1cc2ccccc2nc1-c1cc(CC(=O)O)ccc1OC)C(=O)C1CC1` [Compound 2-1, (3-{3-[(Cyclopropanecarbonyl-ethyl-amino)-methyl]-quinolin-2-yl}-4-methoxy-phenyl)-acetic acid]: the IC50 was 300 to 1000 nM.

Regarding `CCN(Cc1cc2ccccc2nc1-c1cc(CC(=O)O)ccc1OC)C(C)=O` [Compound 2-2, (3-{3-[(Acetyl-ethyl-amino)-methyl]-quinolin-2-yl}-4-methoxy-phenyl)-acetic acid], the IC50 is over 1000 nM.

In the case of `CCN(Cc1cc2ccccc2nc1-c1cc(CC(=O)O)ccc1OC)C(=O)COC` [Compound 2-3, [3-(3-{[Ethyl-(2-methoxy-acetyl)-amino]-methyl}-quinolin-2-yl)-4-methoxy-phenyl]-acetic acid], the IC50 is over 1000 nM.

As to `CCN(Cc1nc2ccccc2cc1-c1cc(CC(=O)O)ccc1OC)C(=O)C1CC1` [Compound 2-4, (3-{2-[(Cyclopropanecarbonyl-ethyl-amino)-methyl]-quinolin-3-yl}-4-methoxy-phenyl)-acetic acid], the IC50 is under 300 nM.

With `CCC(=O)N(CC)Cc1nc2ccccc2cc1-c1cc(CC(=O)O)ccc1OC` [Compound 2-5, (3-{2-[(Ethyl-propionyl-amino)-methyl]-quinolin-3-yl}-4-methoxy-phenyl)-acetic acid], the IC50 is under 300 nM.

Take `CCN(Cc1nc2ccccc2cc1-c1cc(CC(=O)O)ccc1OC)C(=O)COC` [Compound 2-6, [3-(2-{[Ethyl-(2-methoxy-acetyl)-amino]-methyl}-quinolin-3-yl)-4-methoxy-phenyl]-acetic acid]: the IC50 is under 300 nM.

`COc1ccc(CC(=O)O)cc1-c1cc2ccccc2nc1CN(Cc1ccccc1)C(C)=O` [Compound 2-7, (3-{2-[(Acetyl-benzyl-amino)-methyl]-quinolin-3-yl}-4-methoxy-phenyl)-acetic acid]: the IC50 is under 300 nM.

As to `COc1ccc(CC(=O)O)cc1-c1cc2ccccc2nc1CN(Cc1ccccc1)C(=O)C1CC1` [Compound 2-8, (3-{2-[(Benzyl-cyclopropanecarbonyl-amino)-methyl]-quinolin-3-yl}-4-methoxy-phenyl)-acetic acid], the IC50 was under 300 nM.

For `O=C(O)CCn1c2c(c3ccccc31)C[C@H](NS(=O)(=O)c1ccc(F)cc1)CC2` [Ramatroban, reference compound], the IC50 is 300 to 1000 nM.
